Source: ChEMBL document CHEMBL1150388, “Discovery of orally active pyrrolopyridine- and aminopyridine-based Met kinase inhibitors” (Bioorg Med Chem Lett, 2008)
Values belong to the compound of their own block, whether it stands above or below them.

Key:
[1] = Antiproliferative activity against human GTL16 cells; assay type: functional, cell-based; conditions: GTL 16
[2] = molecular target: Hepatocyte growth factor receptor (Homo sapiens, UniProt P08581); assay: Inhibition of Met kinase
[3] = AUC (0 to 4 hrs) in mouse at 50 mg/kg, po; assay type: ADME, organism-based; parameters: time < 4 hr, dose 50 mg/kg, route oral; conditions: plasma
[4] = tested on: Liver microsomes; assay: Metabolic stability in human liver microsomes at 3 uM after 10 mins; assay type: ADME, Microsome
[5] = Metabolic stability in mouse liver microsomes at 3 uM after 10 mins; assay type: ADME, Microsome
[6] = Cmax in mouse at 50 mg/kg, po; assay type: ADME, organism-based; parameters: dose 50 mg/kg, route oral; conditions: in vivo
[7] = Tmax in mouse at 50 mg/kg, po; assay type: ADME, organism-based; parameters: dose 50 mg/kg, route oral; conditions: in vivo
[8] = Antitumor activity in human GTL16 cells xenografted athymic mouse 75 mg/kg, po daily once for 14 days; assay type: functional; conditions: GTL 16, 336 h, read-out: TGI
[9] = Antitumor activity in human GTL16 cells xenografted athymic mouse 125 mg/kg, po daily once for 14 days; assay type: functional; conditions: GTL 16, 336 h, read-out: TGI
[10] = Antitumor activity in human GTL16 cells xenografted athymic mouse 25 mg/kg, po daily once for 14 days; assay type: functional; conditions: GTL 16, 336 h, read-out: TGI
[11] = AUC (0 to 8 hrs) in mouse at 50 mg/kg, po; assay type: ADME, organism-based; parameters: time < 8 hr, dose 50 mg/kg, route oral; conditions: plasma
[12] = molecular target: Cytochrome P450 3A4 (Homo sapiens, UniProt P08684); assay: Inhibition of human CYP3A4; assay type: ADME
[13] = Antitumor activity in human GTL16 cells xenografted athymic mouse 100 mg/kg, po daily once for 14 days; assay type: functional; conditions: GTL 16, 336 h, read-out: TGI
[14] = Antitumor activity in human GTL16 cells xenografted athymic mouse 50 mg/kg, po daily once for 14 days; assay type: functional; conditions: GTL 16, 336 h, read-out: TGI
[15] = Protein binding in mouse plasma; assay type: ADME, cell-free; conditions: read-out: PPB (converted)

Chain of Cytochrome P450 3A4 (P08684 whole entry): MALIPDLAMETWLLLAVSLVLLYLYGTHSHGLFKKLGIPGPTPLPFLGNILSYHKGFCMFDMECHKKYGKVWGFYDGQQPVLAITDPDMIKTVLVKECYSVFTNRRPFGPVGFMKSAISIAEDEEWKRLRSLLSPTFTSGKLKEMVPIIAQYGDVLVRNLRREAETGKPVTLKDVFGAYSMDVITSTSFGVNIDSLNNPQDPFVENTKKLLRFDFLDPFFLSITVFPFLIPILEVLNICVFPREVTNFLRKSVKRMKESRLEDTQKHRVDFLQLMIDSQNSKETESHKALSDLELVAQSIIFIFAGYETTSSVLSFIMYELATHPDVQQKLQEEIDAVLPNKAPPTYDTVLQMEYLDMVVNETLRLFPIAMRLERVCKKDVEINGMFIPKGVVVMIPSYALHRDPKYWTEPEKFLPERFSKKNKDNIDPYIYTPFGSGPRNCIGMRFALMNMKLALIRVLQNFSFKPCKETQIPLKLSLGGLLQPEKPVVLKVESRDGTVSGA
Chain of Hepatocyte growth factor receptor (P08581 whole entry): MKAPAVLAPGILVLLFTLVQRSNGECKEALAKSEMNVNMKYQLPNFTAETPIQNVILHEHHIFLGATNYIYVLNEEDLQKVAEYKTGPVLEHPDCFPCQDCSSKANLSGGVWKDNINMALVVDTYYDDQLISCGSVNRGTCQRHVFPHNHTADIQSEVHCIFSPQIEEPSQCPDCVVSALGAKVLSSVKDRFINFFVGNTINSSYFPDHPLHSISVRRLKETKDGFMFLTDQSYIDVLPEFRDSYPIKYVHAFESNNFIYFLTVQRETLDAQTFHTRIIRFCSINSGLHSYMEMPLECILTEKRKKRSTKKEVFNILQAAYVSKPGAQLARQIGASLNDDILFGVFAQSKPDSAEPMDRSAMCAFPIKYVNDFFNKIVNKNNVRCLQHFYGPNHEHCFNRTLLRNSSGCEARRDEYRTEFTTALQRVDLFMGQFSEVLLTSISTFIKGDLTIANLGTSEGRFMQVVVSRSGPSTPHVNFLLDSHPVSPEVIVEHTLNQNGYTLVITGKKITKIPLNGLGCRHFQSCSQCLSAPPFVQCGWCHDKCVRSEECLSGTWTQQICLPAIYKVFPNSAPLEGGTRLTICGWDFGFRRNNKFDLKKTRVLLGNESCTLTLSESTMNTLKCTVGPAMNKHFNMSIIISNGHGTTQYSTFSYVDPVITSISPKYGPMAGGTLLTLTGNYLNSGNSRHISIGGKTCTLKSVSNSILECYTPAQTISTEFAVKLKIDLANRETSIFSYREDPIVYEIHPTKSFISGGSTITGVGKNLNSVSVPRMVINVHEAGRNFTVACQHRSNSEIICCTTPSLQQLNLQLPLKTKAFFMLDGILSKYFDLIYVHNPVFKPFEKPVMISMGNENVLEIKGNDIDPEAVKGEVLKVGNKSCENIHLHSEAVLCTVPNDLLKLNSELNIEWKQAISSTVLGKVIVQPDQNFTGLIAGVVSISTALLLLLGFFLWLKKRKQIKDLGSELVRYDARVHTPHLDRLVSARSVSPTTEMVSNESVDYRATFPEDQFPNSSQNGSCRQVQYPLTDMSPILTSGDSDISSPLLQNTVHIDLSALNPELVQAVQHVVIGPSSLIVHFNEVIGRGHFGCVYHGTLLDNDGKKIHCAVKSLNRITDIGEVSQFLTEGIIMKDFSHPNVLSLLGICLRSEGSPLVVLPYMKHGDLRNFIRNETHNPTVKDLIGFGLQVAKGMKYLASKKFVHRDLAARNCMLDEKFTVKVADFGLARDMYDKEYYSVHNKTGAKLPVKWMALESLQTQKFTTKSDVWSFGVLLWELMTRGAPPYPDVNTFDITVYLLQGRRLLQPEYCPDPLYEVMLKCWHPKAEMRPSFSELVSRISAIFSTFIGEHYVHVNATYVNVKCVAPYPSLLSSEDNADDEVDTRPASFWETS

IC50 [2]: 7 nM
Compound: Nc1nc(-c2c[nH]c3nccc(Oc4ccc(NC(=O)NC(=O)Cc5ccc(F)cc5)cc4F)c23)cs1
IC50 [1]: 30 nM

AUC(0-t) at 4 h [3]: 33 µM·h
Stability [4]: 0 nmol/min/mg
Rate of metabolism [5]: 0.018 nmol/min/mg
IC50 [2]: 35 nM
Cmax [6]: 10.5 µM
Tmax [7]: 4 h
Compound: Nc1cc(Oc2ccc(NC(=O)NC(=O)Cc3ccc(F)cc3)cc2F)ccn1
IC50 [1]: 290 nM
inhibition in vivo at 75 mg/kg [8]: 80%
inhibition in vivo at 125 mg/kg [9]: 98%
inhibition in vivo at 25 mg/kg [10]: < 50%

IC50 [2]: 19 nM
Compound: O=C(Cc1ccc(F)cc1)NC(=O)Nc1ccc(Oc2ccnc3[nH]cc(C(=O)CN4CCC(O)C4)c23)c(F)c1 (stereo not drawn)
IC50 [1]: 1470 nM

IC50 [2]: 64 nM
Compound: O=C(CC(=O)Nc1ccc(Oc2ccnc3[nH]ccc23)c(F)c1)Nc1ccc(F)cc1
IC50 [1]: 1060 nM

IC50 [2]: 44 nM
Compound: CN(C)CC(=O)c1c[nH]c2nccc(Oc3ccc(NC(=O)NC(=O)Cc4ccc(F)cc4)cc3F)c12
IC50 [1]: 1050 nM

IC50 [2]: 4 nM
Compound: O=C(Cc1ccc(F)cc1)NC(=O)Nc1ccc(Oc2ccnc3[nH]cc(CO)c23)c(F)c1
IC50 [1]: 180 nM

Stability [4]: 0.016 nmol/min/mg
Rate of metabolism [5]: 0.036 nmol/min/mg
AUC(0-t) at 8 h [11]: 11.4 µM·h
IC50 [2]: 2 nM
Cmax [6]: 2.1 µM
Tmax [7]: 4 h
Compound: O=C(Cc1ccc(F)cc1)NC(=O)Nc1ccc(Oc2ccnc3[nH]c(-c4cccnc4)cc23)c(F)c1
IC50 [1]: 30 nM

IC50 [12]: 800 nM
IC50 [2]: 2 nM
Compound: C#Cc1c(Oc2ccc(NC(=O)NC(=O)Cc3ccc(F)cc3)cc2F)ccnc1N
IC50 [1]: 40 nM

Stability [4]: 0.038 nmol/min/mg
Rate of metabolism [5]: 0.049 nmol/min/mg
AUC(0-t) at 8 h [11]: 34 µM·h
IC50 [2]: 2 nM
Cmax [6]: 6 µM
Tmax [7]: 4 h
Compound: O=C(Cc1ccc(F)cc1)NC(=O)Nc1ccc(Oc2ccnc3[nH]cc(-c4cccnc4)c23)c(F)c1
IC50 [1]: 20 nM
inhibition in vivo at 100 mg/kg [13]: 88%
inhibition in vivo at 50 mg/kg [14]: 67%

IC50 [2]: 100 nM
Compound: Nc1cc(Oc2ccc(NC(=O)CC(=O)Nc3ccc(F)cc3)cc2F)ccn1
IC50 [1]: 1490 nM

Stability [4]: 0 nmol/min/mg
Rate of metabolism [5]: 0.042 nmol/min/mg
IC50 [12]: 37000 nM
AUC(0-t) at 8 h [11]: 85 µM·h
IC50 [2]: 5 nM
Cmax [6]: 16 µM
Tmax [7]: 4 h
fraction unbound [15]: 0.0002
Compound: Nc1nccc(Oc2ccc(NC(=O)NC(=O)Cc3ccc(F)cc3)cc2F)c1C#Cc1ccccn1
IC50 [1]: 40 nM
inhibition in vivo at 50 mg/kg [14]: < 50%

IC50 [2]: 11 nM
Compound: O=C(Cc1ccc(F)cc1)NC(=O)Nc1ccc(Oc2ccnc3[nH]cc(C(=O)NCc4cccnc4)c23)c(F)c1
IC50 [1]: 650 nM

AUC(0-t) at 4 h [3]: 6 µM·h
Stability [4]: 0.015 nmol/min/mg
Rate of metabolism [5]: 0.035 nmol/min/mg
IC50 [2]: 110 nM
Cmax [6]: 2.4 µM
Tmax [7]: 4 h
Compound: O=C(Cc1ccc(F)cc1)NC(=O)Nc1ccc(Oc2ccnc3[nH]ccc23)c(F)c1
IC50 [1]: 150 nM

IC50 [12]: 700 nM
IC50 [2]: 3 nM
Compound: Nc1nccc(Oc2ccc(NC(=O)NC(=O)Cc3ccc(F)cc3)cc2F)c1C#CCO
IC50 [1]: 30 nM

IC50 [2]: 5 nM
Compound: COC(=O)c1c[nH]c2nccc(Oc3ccc(NC(=O)NC(=O)Cc4ccc(F)cc4)cc3F)c12
IC50 [1]: 180 nM

IC50 [2]: 11 nM
Compound: CN1CCN(CC(=O)c2c[nH]c3nccc(Oc4ccc(NC(=O)NC(=O)Cc5ccc(F)cc5)cc4F)c23)CC1
IC50 [1]: 2220 nM

IC50 [12]: 1800 nM
IC50 [2]: 5 nM
Compound: NCC#Cc1c(Oc2ccc(NC(=O)NC(=O)Cc3ccc(F)cc3)cc2F)ccnc1N
IC50 [1]: 250 nM

IC50 [12]: 2700 nM
IC50 [2]: 4 nM
Compound: CN(C)CC#Cc1c(Oc2ccc(NC(=O)NC(=O)Cc3ccc(F)cc3)cc2F)ccnc1N
IC50 [1]: 220 nM
